Test [1] has as its target T1, GPR40 (Homo sapiens, UniProt O14842). In words: Cell-based aequorin assay (CHO cells stably expressing GPR40 and aequorin). Set-up: expressed in transfected cells; host or cells: CHO cells stably transfected with GPR40 and aequorin. The settings on record: activation of human GPR40, CHO cells, 0.01% HSA. In short, it runs like this: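 CHO cells stably co-expressing GPR40 and aequorin, loaded with coelenterazine (1 ug/mL, 2 h, room temperature) in H/HBSS with 20 mM Hepes and 0.01% fatty acid-free HSA. Serially diluted compounds added; luminescence recorded over 20 s. EC50 from dose-response of maximum relative light units.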

Test [2] deals with T1, GPR40. Kind of test: Inositol phosphate accumulation assay (A9_GPR40 cells). In kind it is cell-based. Set-up: expressed in transfected cells; host or cells: CHO cells stably transfected with GPR40 and aequorin. As to conditions: inositol phosphate assay, A9_GPR40 cells, 1 hour; read-out: IP3 EC50. The procedure, abridged:
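A9 cells stably expressing GPR40 were labelled 16 h with 1 μCi/mL ^3H-inositol in inositol-free DMEM with dialysed FBS. Compounds in HBSS/10 mM LiCl with HSA were applied for 1 h at 37° C, then quenched with 20 mM formic acid. Accumulated [^3H] inositol phosphates were counted by SPA.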

A value given as a limit tells only on which side of the number the result lay.

T1 sequence (O14842 whole entry): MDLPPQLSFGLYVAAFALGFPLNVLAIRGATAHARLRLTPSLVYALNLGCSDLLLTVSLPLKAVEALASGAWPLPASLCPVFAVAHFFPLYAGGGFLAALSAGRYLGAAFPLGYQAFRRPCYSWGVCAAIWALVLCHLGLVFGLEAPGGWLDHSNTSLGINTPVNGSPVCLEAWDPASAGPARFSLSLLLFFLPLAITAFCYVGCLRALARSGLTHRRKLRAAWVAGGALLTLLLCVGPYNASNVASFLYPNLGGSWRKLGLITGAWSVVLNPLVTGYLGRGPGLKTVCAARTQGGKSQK

A word on the EC50: it is the midpoint of the concentration-response curve. On to `CCC(CC(=O)O)c1cccc(OCc2ccc(-c3cc(OC)ccc3F)c(C3=CCCC3(C)C)c2)c1F` (single isomer, unassigned) [Example 77.1, (3R)-3-(3-(((2-(5,5-Dimethyl-1-cyclopenten-1-yl)-2′-fluoro-5′-(methyloxy)-1,1′-biphenyl-4-yl)methyl)oxy)-2-fluorophenyl)pentanoic acid or (3S)-3-(3-(((2-(5,5-dimethyl-1-cyclopenten-1-yl)-2′-fluoro-5′-(methyloxy)-1,1′-biphenyl-4-yl)methyl)oxy)-2-fluorophenyl)pentanoic acid], for which the half-maximal effective concentration (EC50) lay in the range of 100 to 1000 nM in test [1] and 10 to 100 nM in test [2].
Consider `CCC(CC(=O)O)c1cccc(OCc2ccc(-c3cc(OC)ccc3F)c(C(C)(C)C)c2)c1F` (single isomer, unassigned) [Example 77.2, (3R)-3-(3-(((2-(1,1-Dimethylethyl)-2′-fluoro-5′-(methyloxy)-1,1′-biphenyl-4-yl)methyl)oxy)-2-fluorophenyl)pentanoic acid or (3S)-3-(3-(((2-(1,1-dimethylethyl)-2′-fluoro-5′-(methyloxy)-1,1′-biphenyl-4-yl)methyl)oxy)-2-fluorophenyl)pentanoic acid], for which the EC50 in test [1] and in test [2] was 100 to 1000 nM in each case.
As to `CCC(CC(=O)O)c1cccc(OCc2ccc(-c3cc(OC)ccc3F)c(C(OC)C(C)(C)C)c2)c1F` (single isomer, unassigned) [Example 77.4], the EC50 in test [1] was 100 to 1000 nM; in test [2], under 10 nM.
For `CCC(CC(=O)O)c1cccc(OCc2ccc(-c3cc(OC)ccc3F)c(C(C)C(C)(C)C)c2)c1F` (single isomer, unassigned) [Example 77.5], the EC50 is 100 to 1000 nM in test [1] and under 10 nM in test [2].
`CCC(CC(=O)O)c1cccc(OCc2cc(C3CCCC3(C)C)c(-c3cc(OC)ccc3F)cc2F)c1F` (single isomer, unassigned) [Example 77.6]: the EC50 was 100 to 1000 nM in test [1] and under 10 nM in test [2].
Consider `CC[C@H](CC(=O)O)c1cccc(OCc2ccc(-c3cc(C(F)F)ccc3F)c(C3=CCCC3(C)C)c2)c1F` (single isomer, unassigned) [Example 77.7, (3R)-3-(3-(((5′-(Difluoromethyl)-2-(5,5-dimethyl-1-cyclopenten-1-yl)-2′-fluoro-1,1′-biphenyl-4-yl)methyl)oxy)-2-fluorophenyl)pentanoic acid or (3S)-3-(3-(((5′-(difluoromethyl)-2-(5,5-dimethyl-1-cyclopenten-1-yl)-2′-fluoro-1,1′-biphenyl-4-yl)methyl)oxy)-2-fluorophenyl)pentanoic acid], for which the EC50 in test [1] fell in the range of 1000 to 10000 nM; in test [2], 100 to 1000 nM.
As to `CCC(CC(=O)O)c1cccc(OCc2ccc(-c3cc(OC)ccc3F)c(C3CCCCC3(C)C)c2)c1F` (single isomer, unassigned) [Example 77.8], the EC50 in test [1] was 100 to 1000 nM; in test [2], under 10 nM.
Consider `CCC(CC(=O)O)c1cccc(OCc2ccc(-c3cc(OC)ncc3F)c(C3CCCC3(C)C)c2)c1F` (single isomer, unassigned) [Example 77.9], for which the results for the concentration for a half-maximal effect (EC50) in test [1] and in test [2] were 100 to 1000 nM and under 10 nM, respectively.
Regarding `CCC(CC(=O)O)c1cccc(OCc2ccc(-c3cc(OC)ncc3F)c(C(OC)C(C)(C)C)c2)c1F` (single isomer, unassigned) [Example 77.10], the values for the EC50 in test [1] and in test [2] were 100 to 1000 nM and under 10 nM, respectively.
Turning to `CCC(CC(=O)O)c1cccc(OCc2ccc(-c3cc(OC)ncc3F)c(C(O)(C(C)(C)C)C(C)(C)C)c2)c1F` (single isomer, unassigned) [Example 77.11, (3R)-3-(3-(4-(5-Fluoro-2-methoxypyridin-4-yl)-3-(3-hydroxy-2,2,4,4-tetramethylpentan-3-yl)benzyloxy)-2-fluorophenyl)pentanoic acid or (3R)-3-(3-(4-(5-fluoro-2-methoxypyridin-4-yl)-3-(3-hydroxy-2,2,4,4-tetramethylpentan-3-yl)benzyloxy)-2-fluorophenyl)pentanoic acid], the EC50 in test [1] was 100 to 1000 nM; in test [2] it was under 10 nM.
Regarding `CC[C@H](CC(=O)O)c1cccc(OCc2ccc(-c3cc(OC)ccc3F)c([C@H]3CCCC3(C)C)c2)c1` (single isomer, unassigned) [Example 78.4], the 50% effective concentration (EC50) is 10 to 100 nM in test [1] and under 10 nM in test [2].
Consider `CCC(CC(=O)O)c1cccc(OCc2ccc(-c3cccc(OC)c3)c(C3CCCC3(C)C)c2)c1` (single isomer, unassigned) [Example 78.6], for which the EC50 in test [1] is 10 to 100 nM; in test [2], under 10 nM.
For `CC[C@H](CC(=O)O)c1cccc(OCc2ccc(-c3cc(OC)ccc3F)c(C3CCCCCC3)c2)c1` (single isomer, unassigned) [Example 78.7, (3R)-3-(3-(((2-Cycloheptyl-2′-fluoro-5′-(methyloxy)-1,1′-biphenyl-4-yl)methyl)oxy)phenyl)pentanoic acid or (3S)-3-(3-(((2-cycloheptyl-2′-fluoro-5′-(methyloxy)-1,1′-biphenyl-4-yl)methyl)oxy)phenyl)pentanoic acid], the concentration for a half-maximal effect (EC50) in test [1] fell in the range of 100 to 1000 nM; in test [2], 10 to 100 nM.
For `CC[C@H](CC(=O)O)c1cccc(OCc2ccc(-c3cccc(OC)c3)c(C3CCCCCC3)c2)c1` (single isomer, unassigned) [Example 78.8, (3R)-3-(3-(((2-Cycloheptyl-3′-(methyloxy)-1,1′-biphenyl-4-yl)methyl)oxy)phenyl)pentanoic acid or (3S)-3-(3-(((2-cycloheptyl-3′-(methyloxy)-1,1′-biphenyl-4-yl)methyl)oxy)phenyl)pentanoic acid], the EC50 fell in the range of 100 to 1000 nM in test [1] and 10 to 100 nM in test [2].
Regarding `CC[C@H](CC(=O)O)c1cccc(OCc2ccc(-c3cc(Cl)ccc3F)c(C3=CCCC3(C)C)c2)c1` (single isomer, unassigned) [Example 78.9, (3R)-3-(3-(((5′-Chloro-2-(5,5-dimethyl-cyclopenten-1-yl)-2′-fluoro-1,1′-biphenyl-4-yl)methyl)oxy)phenyl)pentanoic acid or (3S)-3-(3-(((5′-chloro-2-(5,5-dimethyl-1-cyclopenten-1-yl)-2′-fluoro-1,1′-biphenyl-4-yl)methyl)oxy)phenyl)pentanoic acid], the results for the EC50 in test [1] and in test [2] were 100 to 1000 nM and 10 to 100 nM, respectively.
The like results for `CCC(CC(=O)O)c1cccc(OCc2cc(C3CCCC3(C)C)c(-c3cc(OC)ccc3F)cc2F)c1` (single isomer, unassigned) [Example 78.10] were, in that order, 100 to 1000 nM and under 10 nM.
As for `CCC(CC(=O)O)c1cccc(OCc2ccc(-c3cc(OC)ccc3F)c(C3CCCCC3(C)C)c2)c1` (single isomer, unassigned) [Example 78.11], the values for the half-maximal effective concentration (EC50) in test [1] and in test [2] were 10 to 100 nM and under 10 nM, respectively.
Take `CCC(CC(=O)O)c1cccc(OCc2ccc(-c3cc(OC)ccc3F)c(C(OC)C(C)(C)CC)c2)c1` (single isomer, unassigned) [Example 78.14]: the 50% effective concentration (EC50) in test [1] is 10 to 100 nM; in test [2], under 10 nM.
In the case of `COc1ccc(F)c(-c2ccc(COc3cccc(C(CC(=O)O)C4CCC4)c3)cc2C2CCCC2(C)C)c1` (single isomer, unassigned) [Example 79.3], the figures for the concentration giving a half-maximal response (EC50) in test [1] and in test [2] were 100 to 1000 nM and 10 to 100 nM, respectively.
The like results for `COc1ccc(F)c(-c2ccc(COc3cccc([C@@H](CC(=O)O)C4CCC4)c3)cc2[C@@H]2CCCC2(C)C)c1` (single isomer, unassigned) [Example 79.4] were, in that order, 10 to 100 nM and under 10 nM.
As for `COc1cccc(-c2ccc(COc3cccc(C(CC(=O)O)C4CCC4)c3)cc2C2CCCC2(C)C)c1` (single isomer, unassigned) [Example 79.6], the EC50 was 100 to 1000 nM in test [1] and 10 to 100 nM in test [2].
On the same counts, the results for `COc1ccc(F)c(-c2ccc(COc3cccc(C(CC(=O)O)C4CCC4)c3)cc2C2CCCCCC2)c1` (single isomer, unassigned) [Example 79.7, (3S)-3-(3-(((2-Cycloheptyl-2′-fluoro-5′-(methyloxy)-1,1′-biphenyl-4-yl)methyl)oxy)phenyl)-3-cyclobutylpropanoic acid or (3R)-3-(3-(((2-cycloheptyl-2′-fluoro-5′-(methyloxy)-1,1′-biphenyl-4-yl)methyl)oxy)phenyl)-3-cyclobutylpropanoic acid] are 100 to 1000 nM and 10 to 100 nM.
In the case of `COc1cccc(-c2ccc(COc3cccc(C(CC(=O)O)C4CCC4)c3)cc2C2CCCCCC2)c1` (single isomer, unassigned) [Example 79.8, (3S)-3-(3-(((2-Cycloheptyl-3′-(methyloxy)-1,1′-biphenyl-4-yl)methyl)oxy)phenyl)-3-cyclobutylpropanoic acid or (3R)-3-(3-(((2-cycloheptyl-3′-(methyloxy)-1,1′-biphenyl-4-yl)methyl)oxy)phenyl)-3-cyclobutylpropanoic acid], the half-maximal effective concentration (EC50) lay within 100 to 1000 nM in test [1] and 10 to 100 nM in test [2].
On the same counts, the results for `CCC[C@H](CC(=O)O)c1cccc(OCc2ccc(-c3cc(OC)ccc3F)c([C@H]3CCCC3(C)C)c2)c1` (single isomer, unassigned) [Example 80.4] are 100 to 1000 nM and under 10 nM.
As to `CCCC(CC(=O)O)c1cccc(OCc2ccc(-c3cccc(OC)c3)c(C3CCCC3(C)C)c2)c1` (single isomer, unassigned) [Example 80.6], the concentration for a half-maximal effect (EC50) in test [1] was 100 to 1000 nM; in test [2], under 10 nM.

For the origin of these results see patent US8030354B2, “Substituted biphenyl GPR40 modulators” (Amgen Inc., priority 2007, dated 2011).
